Series [1] can be described thus: Relative solubility by turbidity in aqueous buffers (pH 1.5, 4.5, 6.8, 7.4). It is filed as physicochemical. The note with it: for turbidity threshold (L, M, H) 1.4: pH 1.5 (SGF); for turbidity threshold (L, M, H) 4.5: pH 4.5 (SIF); for turbidity threshold (L, M, H) 6.8: pH 6.8 (SIF); for turbidity threshold (L, M, H) 7.4: pH 7.4 (HEPES). On the procedure: As an indication of relative solubility, the turbidity of compounds in aqueous solutions is assessed. To assess possible compound properties in different physiological compartments, such as stomach, intestine, and blood, a series of aqueous buffers with varying pH is used. Thus each compound is diluted into four different physiologically relevant buffers and solution turbidity is measured by spectrophotometry.
Compounds are dissolved at a concentration of 25 mM in dimethyl sulfoxide, then serially diluted 1:1 into a 96 well plate, diluting 10 times in pure dimethyl sulfoxide, with the final well of each row a dimethyl sulfoxide blank. In an assay plate, 99 μL of appropriate buffer is added to each well, and 1 μL of each sample dilution is added to the buffer, achieving a range of final total concentrations in aqueous solutions having different pH. The buffers used are Simulated Gastric Fluid (SGF-pH 1.5) 0.5M NaCl, pH 1.5; Simulated Intestinal fluid (SIF-pH 4.5 and pH 6.8) 0.05M NaH2PO4, pH 4.5 and 6.8; and Hepes Buffer (HEPES-pH 7.4) 10 mM HEPES, 150 mM NaCl, pH 7.4. Control compounds pyrene, estriol and propranolol HCl are also assessed. Plates are spun and then mixed for 1 minute, and the absorbance is read using a Tecan Safire II to read wavelengths in the visible range (490, 535, and 650 nm) at four locations per well, reflecting the degree of turbidity present. The average optical density for each wavelength in each well is graphed vs. compound concentration, and the concentration at which the curve crosses a threshold O.D. of 0.01 for each wavelength is reported as the endpoint turbidity assay result. The average of the three wavelengths is used to compare turbidity of compounds.

The next series concerns the target CYP3A4(BFC) (Homo sapiens, UniProt P08684). The series is described as follows: CYP3A4(BFC) inhibition. It is filed as in vitro ADME. The settings on record: CYP3A4, substrate BFC; read-out: Cyp IC50 3A4(BFC). On the procedure: CYP (Cytochrome P450) enzymes are the major drug metabolizing enzymes present in the liver. The inhibition of CYP enzyme activity (IC50) for each of CYP1A2, CYP2C19, CYP2C9, CYP2D6, CYP3A4(BFC) and CYP3A4(BQ) is determined for compounds, where inhibition of metabolism of a known substrate leads to a decrease in the fluorescence of the metabolized product. The fluorescence of the product is monitored as a function of compound concentration. Compounds are dissolved in DMSO to a concentration of 100 mM. These are diluted 1 μL into 82 μL of acetonitrile. An 11 μL aliquot of this solution is then added to 204 μL of cofactor mix (1.3% NADPH Regeneration system Solution A, 1.04% NADPH Regeneration system Solution B from BD Biosciences, 5% acetonitrile and 0.05% DMSO). These are then serially diluted 1:1 (160 μL to 160 μL co-factor mix) for a total of 10 points. A 10 μL aliquot of this final mixture is dispensed into 384 well assay plates and incubated for 10 minutes at 37° C. […] Assay plates are incubated at 37° C. (CYP1A2-15 min; CYP2C9-45 min; CYP2C19, 2D6 and 3A4-30 min) and read in a Tecan Safire 2 plate reader (CYP1A2, 2C19 and 3A4 409 ex/460 em; CYP2C9 and 2D6 409 ex/530 em). The signal versus compound concentration is used to determine the IC50. The enzymes and substrates for this assay are obtained from BD Biosciences.

These results are taken from patent publication US8901118B2, “Compounds and methods for kinase modulation, and indications therefor” (Plexxikon Inc., priority 2010, dated 2014).

Where only a bound is given, the exact number is not on record here.

Chain of CYP3A4(BFC) (P08684 whole entry): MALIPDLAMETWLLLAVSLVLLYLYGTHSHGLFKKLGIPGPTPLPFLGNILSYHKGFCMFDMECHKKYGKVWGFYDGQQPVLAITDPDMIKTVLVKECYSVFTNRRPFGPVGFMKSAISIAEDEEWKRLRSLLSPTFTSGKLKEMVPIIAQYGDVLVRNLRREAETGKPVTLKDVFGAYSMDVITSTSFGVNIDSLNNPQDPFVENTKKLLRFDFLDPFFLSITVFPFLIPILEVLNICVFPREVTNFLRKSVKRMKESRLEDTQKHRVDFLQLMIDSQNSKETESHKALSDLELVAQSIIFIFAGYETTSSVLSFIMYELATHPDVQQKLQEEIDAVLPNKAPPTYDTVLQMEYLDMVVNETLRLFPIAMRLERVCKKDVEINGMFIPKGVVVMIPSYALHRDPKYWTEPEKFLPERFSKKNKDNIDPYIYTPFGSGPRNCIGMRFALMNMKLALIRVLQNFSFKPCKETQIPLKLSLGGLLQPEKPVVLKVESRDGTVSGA

As usually defined, the IC50 is the concentration at which inhibition is half-maximal. Take `CCNc1ncnc2[nH]cc(C(=O)c3ccc(Nc4ccc(OC)nc4)nc3F)c12` [Compound P-4081, [4-(ethylamino)-7H-pyrrolo[2,3-d]pyrimidin-5-yl]-[2-fluoro-6-[(6-methoxy-3-pyridyl)amino]-3-pyridyl]methanone]: in series [1], the “turbidity threshold (L, M, H) 1.4” value is “H (high solubility if the threshold concentration is >250 μm)”; the “turbidity threshold (L, M, H) 4.5” value is on record as “M (moderate solubility if the threshold concentration is 31.3 μM to 250 μM)”; the “turbidity threshold (L, M, H) 6.8” value is given as “H (high solubility if the threshold concentration is >250 μm)”; the “turbidity threshold (L, M, H) 7.4” value is “M (moderate solubility if the threshold concentration is 31.3 μM to 250 μM)”. For the same molecule, the IC50 at CYP3A4(BFC) was more than 10 µM.
Consider `CCc1ccc(Nc2ccc(C(=O)c3c[nH]c4ncnc(N)c34)c(F)n2)cn1` [Compound P-4065, (4-amino-7H-pyrrolo[2,3-d]pyrimidin-5-yl)-[6-[(6-ethyl-3-pyridyl)amino]-2-fluoro-3-pyridyl]methanone], for which, in series [1], the “turbidity threshold (L, M, H) 1.4” value is given as “H (high solubility if the threshold concentration is >250 μm)”; the “turbidity threshold (L, M, H) 4.5” value is “M (moderate solubility if the threshold concentration is 31.3 μM to 250 μM)”; the “turbidity threshold (L, M, H) 6.8” value is given as “M (moderate solubility if the threshold concentration is 31.3 μM to 250 μM)”; the “turbidity threshold (L, M, H) 7.4” value was “M (moderate solubility if the threshold concentration is 31.3 μM to 250 μM)”. The IC50 on CYP3A4(BFC) is more than 10 µM.
As for `CCc1ccc(Nc2ccc(C(=O)c3c[nH]c4ncnc(NC(C)C)c34)c(F)n2)cn1` [Compound P-4117, [6-[(6-ethyl-3-pyridyl)amino]-2-fluoro-3-pyridyl]-[4-(isopropylamino)-7H-pyrrolo[2,3-d]pyrimidin-5-yl]methanone], in series [1], the “turbidity threshold (L, M, H) 1.4” value is recorded as “H (high solubility if the threshold concentration is >250 μm)”; the “turbidity threshold (L, M, H) 4.5” value is recorded as “L (low solubility if the threshold concentration is <31.3 μM)”; the “turbidity threshold (L, M, H) 6.8” value is on record as “L (low solubility if the threshold concentration is <31.3 μM)”; the “turbidity threshold (L, M, H) 7.4” value is given as “L (low solubility if the threshold concentration is <31.3 μM)”. Also, at CYP3A4(BFC), the IC50 was more than 10 µM.
Take `CCCCNc1ncnc2[nH]cc(C(=O)c3ccc(Nc4ccc(OC)nc4)nc3F)c12` [Compound P-4080, [4-(butylamino)-7H-pyrrolo[2,3-d]pyrimidin-5-yl]-[2-fluoro-6-[(6-methoxy-3-pyridyl)amino]-3-pyridyl]methanone]: in series [1], the “turbidity threshold (L, M, H) 1.4” value is “M (moderate solubility if the threshold concentration is 31.3 μM to 250 μM)”; the “turbidity threshold (L, M, H) 4.5” value is given as “M (moderate solubility if the threshold concentration is 31.3 μM to 250 μM)”; the “turbidity threshold (L, M, H) 6.8” value is reported as “H (high solubility if the threshold concentration is >250 μm)”; the “turbidity threshold (L, M, H) 7.4” value is given as “M (moderate solubility if the threshold concentration is 31.3 μM to 250 μM)”. For the same molecule, the IC50 on CYP3A4(BFC) is more than 10 µM.
On to `CNc1ncnc2[nH]cc(C(=O)c3ccc(NC4CCC(F)(F)CC4)nc3F)c12` [Compound P-4063, [6-[(4,4-difluorocyclohexyl)amino]-2-fluoro-3-pyridyl]-[4-(methylamino)-7H-pyrrolo[2,3-d]pyrimidin-5-yl]methanone], for which, in series [1], the “turbidity threshold (L, M, H) 1.4” value is recorded as “M (moderate solubility if the threshold concentration is 31.3 μM to 250 μM)”; the “turbidity threshold (L, M, H) 4.5” value is “M (moderate solubility if the threshold concentration is 31.3 μM to 250 μM)”; the “turbidity threshold (L, M, H) 6.8” value is “M (moderate solubility if the threshold concentration is 31.3 μM to 250 μM)”; the “turbidity threshold (L, M, H) 7.4” value is “M (moderate solubility if the threshold concentration is 31.3 μM to 250 μM)”. Moreover, the IC50 at CYP3A4(BFC) was more than 10 µM.
Consider `COc1ccc(Nc2ccc(C(=O)c3c[nH]c4ncnc(NC5CCC(F)(F)CC5)c34)c(F)n2)cn1` [Compound P-4056, [4-[(4,4-difluorocyclohexyl)amino]-7H-pyrrolo[2,3-d]pyrimidin-5-yl]-[2-fluoro-6-[(6-methoxy-3-pyridyl)amino]-3-pyridyl]methanone], for which, in series [1], the “turbidity threshold (L, M, H) 1.4” value is “M (moderate solubility if the threshold concentration is 31.3 μM to 250 μM)”; the “turbidity threshold (L, M, H) 4.5” value was “M (moderate solubility if the threshold concentration is 31.3 μM to 250 μM)”; the “turbidity threshold (L, M, H) 6.8” value is listed as “M (moderate solubility if the threshold concentration is 31.3 μM to 250 μM)”; the “turbidity threshold (L, M, H) 7.4” value is “L (low solubility if the threshold concentration is <31.3 μM)”. Moreover, at CYP3A4(BFC), the IC50 is more than 10 µM.
As to `CCCNc1ncnc2[nH]cc(C(=O)c3ccc(Nc4ccc(OC)nc4)nc3F)c12` [Compound P-4068, [2-fluoro-6-[(6-methoxy-3-pyridyl)amino]-3-pyridyl]-[4-(propylamino)-7H-pyrrolo[2,3-d]pyrimidin-5-yl]methanone], in series [1], the “turbidity threshold (L, M, H) 1.4” value was “H (high solubility if the threshold concentration is >250 μm)”; the “turbidity threshold (L, M, H) 4.5” value is recorded as “M (moderate solubility if the threshold concentration is 31.3 μM to 250 μM)”; the “turbidity threshold (L, M, H) 6.8” value is given as “M (moderate solubility if the threshold concentration is 31.3 μM to 250 μM)”; the “turbidity threshold (L, M, H) 7.4” value is given as “M (moderate solubility if the threshold concentration is 31.3 μM to 250 μM)”. For the same molecule, the IC50 at CYP3A4(BFC) was more than 10 µM.
Consider `O=C(c1ccc(NC2CCC(F)(F)CC2)nc1Cl)c1c[nH]c2ncnc(NCC(F)(F)F)c12` [Compound P-4057, [2-chloro-6-[(4,4-difluorocyclohexyl)amino]-3-pyridyl]-[4-(2,2,2-trifluoroethylamino)-7H-pyrrolo[2,3-d]pyrimidin-5-yl]methanone], for which, in series [1], the “turbidity threshold (L, M, H) 1.4” value was “L (low solubility if the threshold concentration is <31.3 μM)”; the “turbidity threshold (L, M, H) 4.5” value is recorded as “L (low solubility if the threshold concentration is <31.3 μM)”; the “turbidity threshold (L, M, H) 6.8” value was “L (low solubility if the threshold concentration is <31.3 μM)”; the “turbidity threshold (L, M, H) 7.4” value is reported as “M (moderate solubility if the threshold concentration is 31.3 μM to 250 μM)”. For the same molecule, the IC50 at CYP3A4(BFC) is more than 10 µM.
`COCCCNc1ncnc2[nH]cc(C(=O)c3ccc(Nc4ccc(OC)nc4)nc3F)c12` [Compound P-4079, [2-fluoro-6-[(6-methoxy-3-pyridyl)amino]-3-pyridyl]-[4-(3-methoxypropylamino)-7H-pyrrolo[2,3-d]pyrimidin-5-yl]methanone]: in series [1], the “turbidity threshold (L, M, H) 1.4” value was “H (high solubility if the threshold concentration is >250 μm)”; the “turbidity threshold (L, M, H) 4.5” value is “M (moderate solubility if the threshold concentration is 31.3 μM to 250 μM)”; the “turbidity threshold (L, M, H) 6.8” value is listed as “M (moderate solubility if the threshold concentration is 31.3 μM to 250 μM)”; the “turbidity threshold (L, M, H) 7.4” value is “M (moderate solubility if the threshold concentration is 31.3 μM to 250 μM)”. For the same molecule, on CYP3A4(BFC), the IC50 is more than 10 µM.
For the molecule `CNc1ncnc2[nH]cc(C(=O)c3ccc(NC4CCCCC4)nc3F)c12` [Compound P-4102, [6-(cyclohexylamino)-2-fluoro-3-pyridyl]-[4-(methylamino)-7H-pyrrolo[2,3-d]pyrimidin-5-yl]methanone], in series [1], the “turbidity threshold (L, M, H) 1.4” value is recorded as “H (high solubility if the threshold concentration is >250 μm)”; the “turbidity threshold (L, M, H) 4.5” value is on record as “M (moderate solubility if the threshold concentration is 31.3 μM to 250 μM)”; the “turbidity threshold (L, M, H) 6.8” value is “M (moderate solubility if the threshold concentration is 31.3 μM to 250 μM)”; the “turbidity threshold (L, M, H) 7.4” value is “M (moderate solubility if the threshold concentration is 31.3 μM to 250 μM)”. Moreover, the IC50 on CYP3A4(BFC) was more than 10 µM.
